For data set [1], the system named is Trypanosoma brucei brucei. Kind of data set: microbe, parasite or virus in culture. The format is functional, organism-based, STIB 795.
Description: DNDI: Inhibition of Human African Trypanosomiasis (HAT), STIB 795, in vitro
Data set [2] is described as follows: DNDI: Cytotoxicity against human MRC-5 lung fibroblast cells. To be noted: IC50.

Broadly, the IC50 is the point on the concentration scale where inhibition reaches its midpoint. High values mean weaker potency in that assay, low ones greater potency in that assay. Molecule `O=C(NCC1CCCO1)c1cccc(Oc2cc(-c3ccc(F)cc3)ncn2)c1` (stereo unspecified) returned an IC50 in data set [1] (Trypanosoma brucei, STIB 795) greater than 10.4 µM. On the same count and under the same terms, next, `Cc1nnc(Sc2nc(Nc3ccccc3)nc(Nc3ccccc3)n2)s1`: greater than 10.4 µM.

Take `Cc1nc(=S)sn1-c1nc(Nc2ccccc2)nc(Nc2ccccc2)n1`: the IC50 in data set [1] (Trypanosoma brucei, STIB 795) was greater than 10.4 µM. The same measure, in the same setting: in the case of `CCn1cc(CN2CCC(C(=O)NCc3ccc(F)cc3)CC2)c2ccccc21` it was greater than 10.4 µM. Same read-out and setting: next, `O=C(Nc1ccccc1C(=O)N/N=C/c1ccccc1O)c1ccccc1Cl`: greater than 10.4 µM; `Cc1ccnc(NC(c2ccc3cccnc3c2O)c2c(F)cccc2Cl)c1` (stereo unspecified): greater than 10.4 µM; `Cc1cc(N2CCC(C)CC2)nc2ccc(NC(=O)c3cccc(Cl)c3)cc12`: greater than 10.4 µM. Still for that read-out and setting: next, `CC(C)(C)c1ccc(C(OC(CN)c2ccccc2)c2ccc(Cl)cc2)cc1` (stereo unspecified): greater than 10.4 µM; `Cc1nc2ccc3nc(NC(=O)c4ccc(Cl)cc4Cl)sc3c2s1`: greater than 10.4 µM. The molecule `CCOC(=O)c1ccc(NC(=O)CN(c2cccc(F)c2)S(C)(=O)=O)cc1` yielded an IC50 in data set [1] (Trypanosoma brucei, STIB 795) greater than 10.4 µM. Still for that read-out and setting: in the case of `O=C1C(Nc2ccccc2)=C/C(=N/S(=O)(=O)c2cccs2)c2ccccc21` it was greater than 10.4 µM; in that of `[H]/N=C(/N)SCc1nc2n(Cc3ccccc3)c3ccccc3n2c1C(=O)OC`, greater than 10.4 µM; in that of `COc1ccc(CNC2=C(C(=S)Nc3ccccc3)C(=O)CC(C)(C)C2)cc1`, greater than 10.4 µM. On the same count and under the same terms, in the case of `Oc1ccc(-c2nnc(SCCN3CCCCC3)n2Cc2ccccc2)cc1` it was greater than 10.4 µM.

Consider `COc1ccc(CN2CCN(C3CCC(c4ccccc4)CC3)CC2)c(OC)c1` (stereo unspecified), for which the IC50 in data set [1] (Trypanosoma brucei, STIB 795) is greater than 10.4 µM. Still for that read-out and setting: next, `CC1=NN(c2ccccc2)C(=O)/C1=C/c1ccc(Sc2ccc(Cl)cc2)o1`: greater than 10.4 µM; `Clc1ccc2nc(CCc3ccccc3)nc(NCCN3CCCCC3)c2c1`: greater than 10.4 µM. The same measure, in the same setting: in the case of `O=C(O)c1ccccc1N/N=C(/c1ccccc1)c1ccc(Br)cc1` it was greater than 10.4 µM; in that of `COc1cccc(C2=CC(c3cc(OC)c(OC)c(OC)c3)n3nnnc3N2)c1` (stereo unspecified), greater than 10.4 µM; in that of `Cc1cc(N2CCC(C)CC2)nc2ccc(NC(=O)c3c(F)cccc3F)cc12`, greater than 10.4 µM. Same read-out and setting: next, `CCN(CC)c1cc(C)c2cc(NC(=O)C3CCC(C(C)(C)C)CC3)ccc2n1` (stereo unspecified): greater than 10.4 µM; `O=C(CCC(=O)Nc1cccc(Cl)c1)N/N=C/c1c(O)ccc2ccccc12`: greater than 10.4 µM; `COc1cccc(/C=N/NC(=O)c2ccccc2I)c1O`: greater than 10.4 µM. Turning to `CCN(CC)CCOC(COC)(c1ccc(Cl)cc1)c1ccc(Cl)cc1`, the IC50 in data set [1] (Trypanosoma brucei, STIB 795) is greater than 10.4 µM. On the same count and under the same terms, next, `Cc1ccc(S(=O)(=O)/N=C2\C=C(N3CCOCC3)C(=O)c3ccccc32)cc1`: greater than 10.4 µM; `CC(C)CCOc1ccc(/C=N/NC(=O)C23CC4CC(C)(CC(C)(C4)C2)C3)cc1`: greater than 10.4 µM. `CCN(CC)CC(O)CN(/N=C/c1ccc(N(CC)CC)cc1)c1ccccc1` (stereo unspecified) registered an IC50 in data set [1] (Trypanosoma brucei, STIB 795) greater than 10.4 µM. In data set [1] (Trypanosoma brucei, STIB 795), `CCOC(=O)COc1ccc(/C=C\c2cc(C(F)(F)F)nc(=O)[nH]2)cc1OC` gave an IC50 greater than 10.4 µM.

Consider `Cc1ccc(O)c(/C=N/NC(=O)C2=NNC(c3ccccc3)(c3ccccc3)C2)c1`, for which the IC50 in data set [1] (Trypanosoma brucei, STIB 795) is greater than 10.4 µM. The same measure, in the same setting: next, `COc1cc(C(CC(=O)c2ccco2)Sc2ccccc2)cc(OC)c1OC` (stereo unspecified): greater than 10.4 µM; `COc1ccc(C(=O)NN=C2C=C(C(C)(C)C)C(=O)C(C(C)(C)C)=C2)cc1OC`: greater than 10.4 µM. On the same count and under the same terms, in the case of `CCOC(=O)C1=C(C)NC(SCC(=O)c2ccccc2)=C(C#N)C1CC(C)C` (stereo unspecified) it was greater than 10.4 µM; in that of `Cc1ccc(NC(=O)CN(C)C(=O)c2ccc3c(c2)nnn3C(C)C)c(Cl)c1`, greater than 10.4 µM. The same measure, in the same setting: next, `CCOC(=O)c1sc(-n2[nH]c(C)c(Cc3ccc(Cl)cc3)c2=O)nc1C`: greater than 10.4 µM.

As for `O=S1(=O)Nc2c(ccc3cccnc23)-c2ccccc21`, the IC50 is greater than 20.8 µM in data set [2] and 2.87 µM in data set [1] (Trypanosoma brucei, STIB 795). Taken in the same sequence, the figures for `c1ccc(Nc2nc(-c3ccccn3)cs2)nc1` were greater than 10.4 µM and 0.718 µM. In the case of `OCCNC1CCCc2c1[nH]c1ccc(Br)cc21` (stereo unspecified), the IC50 is greater than 20.8 µM in data set [2]; 1.83 µM in data set [1]; 2.45 µM in data set [1] (Trypanosoma brucei, STIB 795). `CCN1C(=Cc2sc3ccc(Cl)cc3[n+]2CC)C=Cc2cc(OC)ccc21`: the IC50 in data set [2] was greater than 4.17 µM; in data set [1] (Trypanosoma brucei, STIB 795), 0.706 µM. For `CC(C)CC[n+]1ccccc1C=Cc1ccc(N(C)C)cc1`, in that order: greater than 10.4 µM and 0.734 µM. For `N=c1c2c(n(Cc3ccc(Cl)cc3Cl)c3c1CCC3)CCCC2`, in that order: greater than 41.7 µM and 0.842 µM. As to `CCC(C)(C)c1ccc(OCC(O)CNCc2ccccc2)c(C(C)(C)CC)c1` (stereo unspecified), the IC50 in data set [1] (Trypanosoma brucei, STIB 795) was greater than 10.4 µM. For `COC(=O)C1=C(OC)C(=O)OC12C=CC(=O)C=C2`, the IC50 is 1.06 µM in data set [2] and 0.524 µM in data set [1] (Trypanosoma brucei, STIB 795). For `CN1/C(=C/c2cccc[n+]2C)Sc2ccccc21`, in that order: greater than 20.8 µM and 0.477 µM.

Take `CC[n+]1c(/C=C2\Sc3cc(NC(C)=O)ccc3N2C)ccc2ccccc21`: the IC50 in data set [2] is greater than 41.7 µM; in data set [1] (Trypanosoma brucei, STIB 795), 5.41 µM. Taken in the same sequence, the figures for `Cc1ccc(-c2cn3c([n+]2-c2ccc(C)cc2)CCCCC3)cc1` were greater than 20.8 µM and 6.4 µM.

Source of the values: ChEMBL document CHEMBL2094269, “WEHI/Eskitis Trypanosoma b. brucei screening data”.
